From patent US9765075B2, “Substituted bridged urea analogs as sirtuin modulators” (GLAXOSMITHKLINE LLC, priority 2013, dated 2017)
Like-named read-outs stand apart in the source and are kept apart here.

Molecular target: T1, SIRT1 (Homo sapiens, UniProt Q96EB6)
T1 sequence (Q96EB6 1-747): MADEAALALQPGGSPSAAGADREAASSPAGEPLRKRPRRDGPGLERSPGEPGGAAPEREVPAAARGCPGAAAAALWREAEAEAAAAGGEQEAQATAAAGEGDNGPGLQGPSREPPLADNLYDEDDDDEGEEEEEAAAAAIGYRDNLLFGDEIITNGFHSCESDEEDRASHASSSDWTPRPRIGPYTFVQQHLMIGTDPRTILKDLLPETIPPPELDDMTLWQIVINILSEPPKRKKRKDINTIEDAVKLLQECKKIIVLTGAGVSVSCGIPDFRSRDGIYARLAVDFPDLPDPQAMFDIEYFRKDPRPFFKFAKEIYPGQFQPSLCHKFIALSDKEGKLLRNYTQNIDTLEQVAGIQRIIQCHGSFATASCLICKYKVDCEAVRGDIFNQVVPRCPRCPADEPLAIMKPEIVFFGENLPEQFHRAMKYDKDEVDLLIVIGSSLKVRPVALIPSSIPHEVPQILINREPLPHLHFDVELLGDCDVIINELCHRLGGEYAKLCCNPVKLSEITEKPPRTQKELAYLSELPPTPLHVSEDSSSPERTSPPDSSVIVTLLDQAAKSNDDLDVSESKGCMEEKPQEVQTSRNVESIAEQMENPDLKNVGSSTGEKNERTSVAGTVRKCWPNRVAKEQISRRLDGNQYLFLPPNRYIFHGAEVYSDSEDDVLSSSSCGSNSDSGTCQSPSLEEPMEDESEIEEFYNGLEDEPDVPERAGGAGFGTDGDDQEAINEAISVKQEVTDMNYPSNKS
Assay: Trp mass spectrometry assay (SIRT1 activation)
Format: biochemical
Details: for Emax: percent maximum fold activation of SIRT1, read-out: Tryp % Fold Act
Method in brief: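 N-His-tagged SIRT1 (10 nM), expressed in E. coli, was incubated with 0.5 μM Ac-RHKK(Ac)W-NH2 peptide and 120 μM NAD+ for 25 min at 25 °C in HEPES pH 7.5 with […]. The reaction was stopped with formic acid and O-acetyl-ADP-ribose or deacetylated peptide was quantified by mass spectrometry. Results are given as EC1.5 and percent maximal activation relative to DMSO control.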

[1] = concentration of test compound that results in 150% activation of SIRT1, Trp peptide substrate
[2] = Trp mass spectrometry assay, EC1.5 = concentration of test compound that results in 150% activation of SIRT1
[3] = Trp mass spectrometry assay, EC1.5 = concentration giving 150% activation of SIRT1

Row | SMILES | Tryp AVG EC1.5 (μM) [1] | Emax (Trp peptide substrate) | Tryp AVG EC1.5 (μM) [2] | Emax (Trp mass spectrometry assay) | Tryp AVG EC1.5 (μM) [3]
1 | COc1cncc(NC(=O)N2c3nc(-c4cccc(OC(F)(F)F)c4)ccc3N3CC[C@H]2C3)n1 [Example 197] | – | – | A (EC1.5<1 μM) | ≥ 150% | –
2 | O=C(CCCCCNC(=O)c1ccc2c(c1)C(=O)OC21c2ccc(O)cc2Oc2cc(O)ccc21)NCc1ncc(-c2cccc(NC(=O)N3c4nc(-c5cccc(C(F)(F)F)c5)ccc4N4CC[C@H]3C4)c2)o1 [Example 708] | – | – | – | ≥ 150% | A (EC1.5<1 μM)
3 | O=C(Nc1cncc(F)c1)N1c2nc(N3CC[C@H](F)C3)ccc2S(=O)(=O)N2CC[C@H]1C2 [Example 469] | C (EC1.5>25 μM) | < 150% | – | – | –
4 | CC(C)c1cccc(-c2ccc3c(n2)N(C(=O)Nc2ccccn2)[C@H]2CCN3C2)c1 [Example 330] | A (EC1.5<1 μM) | ≥ 150% | – | – | –
5 | C#Cc1ccc(NC(=O)N2c3nc(-c4ccc(C5(C(F)(F)F)N=N5)cc4)ccc3N3CC[C@H]2C3)nc1 [Example 807] | – | – | – | < 150% | C (EC1.5>25 μM)
6 | O=C(Nc1cnccn1)N1c2nc(-c3cccc(N4CCC(C(F)(F)F)C4)c3)ccc2N2CC[C@H]1C2 (stereo partly shown) [Example 319] | B (EC1.5 1-25 μM) | ≥ 150% | – | – | –
7 | O=C(Nc1ccccn1)N1c2nc(-c3cncc(F)c3)ccc2N2CC[C@H]1C2 [Example 374] | B (EC1.5 1-25 μM) | ≥ 150% | – | – | –
8 | N#Cc1cccc(-c2ccc3c(n2)N(C(=O)Nc2cnccn2)[C@H]2CCCN3C2)c1 [Example 351] | A (EC1.5<1 μM) | ≥ 150% | – | – | –
9 | O=C(Nc1ccccn1)N1c2nc(-c3ccc(-c4nnn[nH]4)cc3)ccc2N2CC[C@H]1C2 [Example 347] | A (EC1.5<1 μM) | ≥ 150% | – | – | –
10 | COc1cc(NC(=O)N2c3nc(-c4cccc(Cl)c4)ccc3N3C[C@@H](O)[C@H]2C3)nc(OC)n1 [Example 680] | – | – | – | ≥ 150% | B (EC1.5 1-25 μM)
11 | O=C(Nc1cc(O)ncn1)N1c2nc(N3CCCC(C(F)(F)F)C3)ccc2N2CCC[C@H]1C2 (stereo partly shown) [Example 361] | A (EC1.5<1 μM) | ≥ 150% | – | – | –
12 | O=C(Nc1cncc(F)c1)N1c2nc(-c3cccc(N4CC[C@@H](F)C4)c3)ccc2N2CC[C@H]1C2 [Example 282] | A (EC1.5<1 μM) | ≥ 150% | – | – | –
13 | Cc1cc2c(NC(=O)N3c4nc(-c5cccc(C(F)(F)F)c5)ccc4N4CC[C@H]3C4)cccc2nn1 [Example 86] | – | – | – | ≥ 150% | –
14 | CS(=O)(=O)c1cncc(-c2ccc3c(n2)N(C(=O)Nc2cncc(F)c2)[C@H]2CCCN3C2)c1 [Example 377] | A (EC1.5<1 μM) | ≥ 150% | – | – | –
15 | COc1nccnc1NC(=O)N1c2nc(-c3ccnc(C)c3)ccc2N2CC[C@H]1C2 [Example 501] | B (EC1.5 1-25 μM) | ≥ 150% | – | – | –
16 | NCCCCCC(=O)NCc1cn(-c2cccc(NC(=O)N3c4nc(-c5cccc(C(F)(F)F)c5)ccc4N4CC[C@H]3C4)c2)nn1 [Example 639] | – | – | – | ≥ 150% | A (EC1.5<1 μM)
17 | O=C(Nc1cccc(-c2ccccn2)c1)N1c2nc(-c3cccc(C(F)(F)F)c3)ccc2N2CC[C@H]1C2 [Example 667] | – | – | – | ≥ 150% | A (EC1.5<1 μM)
18 | O=C(Nc1ccccn1)N1c2nc(-c3cc(Cl)cc(Cl)c3)ccc2N2CC[C@H]1C2 [Example 324] | A (EC1.5<1 μM) | ≥ 150% | – | – | –
19 | Cc1ccncc1-c1ccc2c(n1)N(C(=O)Nc1cccnc1)[C@H]1CCCN2C1 [Example 516] | B (EC1.5 1-25 μM) | ≥ 150% | – | – | –

Second part, the compound after the results:

Row | Tryp AVG EC1.5 (μM) [1] | Emax (Trp peptide substrate) | Tryp AVG EC1.5 (μM) [2] | Emax (Trp mass spectrometry assay) | Tryp AVG EC1.5 (μM) [3] | SMILES
20 | A (EC1.5<1 μM) | ≥ 150% | – | – | – | O=C(Nc1cncc(F)c1)N1c2nc(-c3cccc(C(F)(F)F)c3)ccc2N2CCC[C@@H]1C2 [Example 273]
21 | B (EC1.5 1-25 μM) | ≥ 150% | – | – | – | O=C(Nc1cncc(F)c1)N1c2nc(-c3cccc(C(F)(F)F)c3)ccc2S(=O)(=O)N2CC[C@H]1C2 [Example 460]
22 | B (EC1.5 1-25 μM) | ≥ 150% | – | – | – | CS(=O)(=O)c1ccc(-c2ccc3c(n2)N(C(=O)Nc2ccccn2)[C@H]2CCN3C2)cc1 [Example 326]
23 | C (EC1.5>25 μM) | < 150% | – | – | – | O=C(CCCCCNC(=O)c1ccc(-c2c3ccc(=O)cc-3oc3cc(O)ccc23)c(C(=O)O)c1)NCc1ccc(NC(=O)N2c3nc(-c4cccc(C(F)(F)F)c4)ccc3N3CC[C@H]2C3)cc1 [Example 547]
24 | – | – | A (EC1.5<1 μM) | ≥ 150% | – | N#Cc1cccc(-c2ccc3c(n2)N(C(=O)Nc2ccccn2)[C@H]2CCN3C2)c1 [Example 139]
25 | C (EC1.5>25 μM) | ≥ 150% | – | – | – | O=C(Nc1ccc(F)cn1)N1c2nc(N3CCCC(C(F)(F)F)C3)ccc2N2CCC[C@@H]1C2 (stereo partly shown) [Example 362]
26 | A (EC1.5<1 μM) | ≥ 150% | – | – | – | Cc1cc(-c2ccc3c(n2)N(C(=O)Nc2ccc4cn(C)cc4c2)[C@H]2CCN3C2)ccn1 [Example 483]
27 | B (EC1.5 1-25 μM) | ≥ 150% | – | – | – | O=C(Nc1cccnc1)N1c2nc(-c3cccnc3)ccc2N2CCC[C@H]1C2 [Example 455]
28 | B (EC1.5 1-25 μM) | ≥ 150% | – | – | – | O=C(Nc1cccnc1)N1c2nc(-c3cnn(-c4ccccc4)c3)ccc2N2CC[C@H]1C2 [Example 549]
29 | A (EC1.5<1 μM) | ≥ 150% | – | – | – | Cc1cncc(-c2ccc3c(n2)N(C(=O)Nc2cccnn2)[C@H]2CCCN3C2)c1 [Example 519]
30 | C (EC1.5>25 μM) | < 150% | – | – | – | O=C(Nc1ccncn1)N1c2nc(N3CCCNCC3)ccc2N2CCC[C@H]1C2 [Example 420]
31 | B (EC1.5 1-25 μM) | ≥ 150% | – | – | – | O=C(Nc1cccnc1)N1c2nc(-c3cncc(Cl)c3)ccc2N2CCC1CC2 [Example 544]
32 | B (EC1.5 1-25 μM) | ≥ 150% | – | – | – | O=C(Nc1cncc(F)c1)N1c2nc(-c3ccnc(N4CC[C@@H](F)C4)c3)ccc2N2CC[C@H]1C2 [Example 464]
33 | B (EC1.5 1-25 μM) | ≥ 150% | – | – | – | Cc1ccc(-c2ccc(NC(=O)N3c4nc(-c5cccc(C(F)(F)F)c5)ccc4N4CC[C@H]3C4)cc2)o1 [Example 582]
34 | – | – | – | ≥ 150% | B (EC1.5 1-25 μM) | O=C(Nc1cccnn1)N1c2nc(-c3cccc(Cl)c3)ccc2N2C[C@@H](O)[C@H]1C2 [Example 682]
35 | – | – | A (EC1.5<1 μM) | ≥ 150% | – | O=C(Nc1ccccn1)N1c2nc(-c3cccc(OC(F)(F)F)c3)ccc2N2CC[C@H]1C2 [Example 138]
36 | A (EC1.5<1 μM) | ≥ 150% | – | – | – | COc1cncc(NC(=O)N2c3nc(-c4cccc(N5CCCC5)c4)ccc3N3CC[C@H]2C3)n1 [Example 366]
37 | A (EC1.5<1 μM) | ≥ 150% | – | – | – | Cc1nc(NC(=O)N2c3nc(-c4cncc(Cl)c4)ccc3N3CCC[C@H]2C3)sc1C [Example 402]
38 | B (EC1.5 1-25 μM) | ≥ 150% | – | – | – | O=C(Nc1ccncc1)N1c2nc(N3CCCC(C(F)(F)F)C3)ccc2N2CCC[C@@H]1C2 (stereo partly shown) [Example 305]
39 | – | – | B (EC1.5 1-25 μM) | ≥ 150% | – | O=C(Nc1ccncc1F)N1c2nc(-c3cccc(OC[C@@H](O)CO)c3)ccc2N2CC[C@H]1C2 [Example 157]
40 | A (EC1.5<1 μM) | ≥ 150% | – | – | – | Cc1cc(-c2ccc3c(n2)N(C(=O)Nc2cccnc2)[C@H]2CCN3C2)ccn1 [Example 498]
